Test results published in patent US20260365670A1, “EGFR INHIBITORS AND USES THEREOF” (DIZAL (JIANGSU) PHARMACEUTICAL CO., LTD., priority 2022, published 2026).
pIC50: −log10 of the molar value. Like-named read-outs stand apart in the source and are kept apart here.

Columns and labels:
[1] = molecular target: T1, EGFR[T790M/C797S/d746-750] (Homo sapiens, UniProt P00533, C797S/DEL746-750/T790M); experiment: Inhibition of EGFR[T790M/C797S/d746-750] biochemical enzymatic activity (HTRF); conditions: EGFR T790M-C797S-Del19, 1 mM ATP, 1 h, room temperature, read-out: IC50 (nM) @T790M - C797S - Del19
T1 construct: purchased Carna Bio
Description: (§1) Biological Example 1: Inhibition of EGFR WT and Mutant Biochemical Enzymatic Activity
(§2) The inhibition potency of compounds against these enzymes was assessed using Homogenous Time Resolved Fluorescence approach (HTRF, CisBio. Cat No. 62TKOPEJ).
(§3) Inhibitory effects of the compounds were determined by measuring the enzymatic activity of EGFR enzyme phosphorylates 1 μM TK Substrate-biotin in the presence of 1 mM adenosine-5′-triphosphate (ATP) and varying concentrations of the test compound. The enzyme reaction buffer contains 5 mM MgCl2, 1 mM MnC12, 0.01% CHAPS, 1 mM dithiothreitol (DTT), 0.5% dimethylsulfoxide (DMSO), and 1× supplemented enzymatic buffer. The WT and mutant EGFR enzymes (SignalChem) were added to plates containing inhibitors, followed by activation of the kinase reaction by addition of ATP and peptide substrates. After incubation for 1 h at room temperature, the reaction was stopped by the addition of the detection reagent mix containing EDTA. The fluorescence was measured at 615 nm and 665 nm, respectively with excitation wavelength at 320 nm. The calculated signal ratio of 665 nm/615 nm is proportional to the kinase activity. The concentration of compound producing 50% inhibition of the respective kinase (IC50) was calculated using four-parameter logistic fit with XL-FIT.

EGFR[T790M/C797S/L858R] = molecular target: T2, EGFR[T790M/C797S/L858R] (Homo sapiens, UniProt P00533, C797S/L858R/T790M); experiment: Inhibition of EGFR[T790M/C797S/L858R] biochemical enzymatic activity (HTRF); conditions: EGFR T790M-C797S-L858R, 1 mM ATP, 1 h, room temperature, read-out: IC50 (nM) @T790M- C797S - L858R
T2 construct: purchased Carna Bio
Description: as §1, §2, §3

EGFR Exon19Del/T790M = molecular target: T3, EGFR Exon19Del/T790M (Homo sapiens, UniProt P00533, DEL746-750/T790M); experiment: Inhibition of EGFR Exon19Del/T790M biochemical enzymatic activity (HTRF); conditions: EGFR Del19-T790M, 1 mM ATP, 1 h, room temperature, read-out: IC50 (nM) @Del19-T790M
T3 construct: purchased Carna Bio
Description: as §1, §2, §3

EGFR L858R/T790M = molecular target: T4, EGFR L858R/T790M (Homo sapiens, UniProt P00533, L858R/T790M); experiment: Inhibition of EGFR L858R/T790M biochemical enzymatic activity (HTRF); conditions: EGFR L858R-T790M, 1 mM ATP, 1 h, room temperature, read-out: IC50 (nM) @L858R-T790M
T4 construct: purchased Carna Bio
Description: as §1, §2, §3

[2] = test system: Ba/F3 cells expressing EGFR mutations; experiment: Cell proliferation assay, Ba/F3 cells expressing EGFR mutations (CellTiter-Glo, 72 hours); type: cell-based; conditions: CellTiter-Glo
Description: (§4) Biological Example 2: Cell Proliferation Assays
(§5) Ba/F3 cells expressing EGFR mutations were seeded in 384-well plates at 5000 cells/well in RPMI1640 medium containing […]. PC-9 at 500 cells/well was seeded into 384-well plates in RPMI1640 medium with 10% FBS. After overnight incubation, the assay plates were dosed with compounds at a series of concentrations. Alongside dosing the assay plates, the day 0 plate was processed using CellTiter-Glo® Luminescent Cell Viability Assay (Promega) to measure the number of viable cells (G0). The assay plates were further incubated for 72 hours and the number of viable cells (G3) was measured. The percentage of proliferation was calculated as: […]=100×(G3 value of sample well−G0 value)/(G3 value of DMSO control−G0 value). The concentration of compound producing 50% proliferation inhibition (GI50) was further calculated in best-fit curves using XLFit software. N/A=not available.

PC-9 = experiment: Cell proliferation assay, PC-9 cells (CellTiter-Glo, 72 hours); type: cell-based; conditions: PC9 cells, CellTiter-Glo, read-out: PC9 GI50
Description: as §4, §5

EGFR (d746-750 C797S) = molecular target: T5, EGFR (d746-750 C797S) (Homo sapiens, UniProt P00533, C797S/DEL746-750); experiment: Inhibition of EGFR (d746-750 C797S) biochemical enzymatic activity (HTRF); conditions: EGFR Del19-C797S, 1 mM ATP, 1 h, room temperature, read-out: IC50 (nM) @Del19-C797S
T5 construct: purchased signalchem
Description: as §1, §2, §3

EGFR L858R = molecular target: T6, EGFR L858R (Homo sapiens, UniProt P00533, L858R); experiment: Inhibition of EGFR L858R biochemical enzymatic activity (HTRF); conditions: 1 mM ATP, 1 h, room temperature, read-out: IC50 (nM) @L858R
T6 construct: purchased Carna Bio
Description: as §1, §2, §3

EGFR wild type = molecular target: T7, EGFR wild type (Homo sapiens, UniProt P00533); experiment: Inhibition of EGFR wild type biochemical enzymatic activity (HTRF); conditions: EGFR WT, 1 mM ATP, 1 h, room temperature, read-out: IC50 (nM) @WT
T7 construct: purchased Carna Bio
Description: as §1, §2, §3

EGFR Exon19Del = molecular target: T8, EGFR Exon19Del (Homo sapiens, UniProt P00533, DEL746-750); experiment: Inhibition of EGFR Exon19Del biochemical enzymatic activity (HTRF); conditions: EGFR Del19, 1 mM ATP, 1 h, room temperature, read-out: IC50 @Del19
T8 construct: purchased Carna Bio
Description: as §1, §2, §3

EGFR (C797S L858R) = molecular target: T9, EGFR (C797S L858R) (Homo sapiens, UniProt P00533, C797S/L858R); experiment: Inhibition of EGFR (C797S L858R) biochemical enzymatic activity (HTRF); conditions: EGFR L858-C797S, 1 mM ATP, 1 h, room temperature, read-out: IC50 (nM) @L858-C797S
T9 construct: purchased signalchem
Description: as §1, §2, §3

[3] = BaF3 cells, EGFR DEL19-C797S, read-out: DEL19-C797S/BaF3 GI50
[4] = BaF3 cells, EGFR DEL19-T790-C797S, read-out: DEL19-T790-C797S/BaF3 GI50
[5] = BaF3 cells, EGFR L858R, read-out: L858R/BaF3 GI50
[6] = BaF3 cells, EGFR L858R-C797S, read-out: L858R-C797S/BaF3 GI50
[7] = BaF3 cells, EGFR L858R-T790-C797S, read-out: L858R-T790-C797S/BaF3 GI50
[8] = BaF3 cells, EGFR L858R-T790M, read-out: L858R-T790M/BaF3 GI50
[9] = EGFR DEL19-T790M, read-out: DEL19-T790M GI50

T8 sequence (P00533 with tags, fused parts or gaps DEL746-750 limits assumed): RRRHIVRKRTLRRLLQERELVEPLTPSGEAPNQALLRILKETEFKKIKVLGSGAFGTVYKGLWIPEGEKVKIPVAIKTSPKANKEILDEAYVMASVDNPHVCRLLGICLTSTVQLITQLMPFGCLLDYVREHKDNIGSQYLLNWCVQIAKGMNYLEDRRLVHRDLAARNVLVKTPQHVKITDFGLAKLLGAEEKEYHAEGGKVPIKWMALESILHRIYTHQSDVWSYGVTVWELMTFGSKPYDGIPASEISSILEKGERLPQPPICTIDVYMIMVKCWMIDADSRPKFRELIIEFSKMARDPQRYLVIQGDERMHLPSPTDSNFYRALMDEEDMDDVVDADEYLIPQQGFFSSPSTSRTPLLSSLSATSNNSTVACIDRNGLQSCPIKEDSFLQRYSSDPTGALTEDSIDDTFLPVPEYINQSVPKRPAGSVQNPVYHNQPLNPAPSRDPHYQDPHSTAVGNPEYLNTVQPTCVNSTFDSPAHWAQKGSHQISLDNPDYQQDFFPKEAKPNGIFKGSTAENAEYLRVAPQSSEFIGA
T3 sequence (P00533 with tags, fused parts or gaps DEL746-750/T790M limits assumed): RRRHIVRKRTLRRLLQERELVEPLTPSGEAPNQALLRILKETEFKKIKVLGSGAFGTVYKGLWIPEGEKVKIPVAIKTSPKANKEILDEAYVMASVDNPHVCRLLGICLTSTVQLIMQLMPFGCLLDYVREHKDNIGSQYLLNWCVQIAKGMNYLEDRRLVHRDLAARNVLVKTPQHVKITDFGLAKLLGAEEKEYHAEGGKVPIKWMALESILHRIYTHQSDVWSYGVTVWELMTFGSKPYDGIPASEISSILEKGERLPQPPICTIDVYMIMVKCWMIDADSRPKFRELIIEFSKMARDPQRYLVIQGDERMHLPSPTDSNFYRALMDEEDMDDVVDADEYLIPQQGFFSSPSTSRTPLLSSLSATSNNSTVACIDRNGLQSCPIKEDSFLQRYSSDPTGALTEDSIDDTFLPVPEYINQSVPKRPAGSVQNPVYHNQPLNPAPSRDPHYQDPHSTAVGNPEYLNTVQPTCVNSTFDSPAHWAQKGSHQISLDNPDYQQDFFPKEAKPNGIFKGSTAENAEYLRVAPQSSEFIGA
T4 sequence (P00533 25-1210 T790M/L858R): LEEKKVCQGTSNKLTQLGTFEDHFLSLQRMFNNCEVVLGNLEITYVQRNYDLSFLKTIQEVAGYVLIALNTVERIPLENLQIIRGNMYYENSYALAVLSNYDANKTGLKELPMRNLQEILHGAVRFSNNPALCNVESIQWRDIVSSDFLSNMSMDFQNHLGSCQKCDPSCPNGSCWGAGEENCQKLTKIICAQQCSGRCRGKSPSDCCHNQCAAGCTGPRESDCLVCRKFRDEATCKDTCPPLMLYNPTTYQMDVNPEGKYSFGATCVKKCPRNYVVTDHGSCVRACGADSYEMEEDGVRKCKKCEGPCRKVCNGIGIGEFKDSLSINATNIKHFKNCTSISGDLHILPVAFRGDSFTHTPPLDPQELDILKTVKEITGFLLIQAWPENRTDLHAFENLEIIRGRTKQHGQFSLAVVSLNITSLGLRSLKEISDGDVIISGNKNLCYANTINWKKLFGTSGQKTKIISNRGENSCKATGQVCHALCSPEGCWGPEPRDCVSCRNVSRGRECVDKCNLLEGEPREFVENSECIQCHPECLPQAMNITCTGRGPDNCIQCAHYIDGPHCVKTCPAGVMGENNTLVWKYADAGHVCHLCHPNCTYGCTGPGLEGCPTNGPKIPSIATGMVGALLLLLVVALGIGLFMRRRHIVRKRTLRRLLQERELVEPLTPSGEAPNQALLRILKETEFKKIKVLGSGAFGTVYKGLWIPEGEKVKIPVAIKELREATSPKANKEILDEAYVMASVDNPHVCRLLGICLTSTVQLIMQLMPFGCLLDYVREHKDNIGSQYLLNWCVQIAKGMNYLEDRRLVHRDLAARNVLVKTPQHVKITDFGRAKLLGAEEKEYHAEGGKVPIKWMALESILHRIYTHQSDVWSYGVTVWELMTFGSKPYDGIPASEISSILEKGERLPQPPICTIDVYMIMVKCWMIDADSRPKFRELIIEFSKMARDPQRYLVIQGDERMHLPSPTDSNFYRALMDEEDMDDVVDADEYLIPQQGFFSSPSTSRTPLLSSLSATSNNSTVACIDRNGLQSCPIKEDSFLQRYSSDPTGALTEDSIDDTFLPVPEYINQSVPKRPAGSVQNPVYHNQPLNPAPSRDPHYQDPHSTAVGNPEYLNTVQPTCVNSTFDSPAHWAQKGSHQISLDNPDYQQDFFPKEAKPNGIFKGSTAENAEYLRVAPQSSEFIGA
T2 sequence (P00533 25-1210 T790M/C797S/L858R): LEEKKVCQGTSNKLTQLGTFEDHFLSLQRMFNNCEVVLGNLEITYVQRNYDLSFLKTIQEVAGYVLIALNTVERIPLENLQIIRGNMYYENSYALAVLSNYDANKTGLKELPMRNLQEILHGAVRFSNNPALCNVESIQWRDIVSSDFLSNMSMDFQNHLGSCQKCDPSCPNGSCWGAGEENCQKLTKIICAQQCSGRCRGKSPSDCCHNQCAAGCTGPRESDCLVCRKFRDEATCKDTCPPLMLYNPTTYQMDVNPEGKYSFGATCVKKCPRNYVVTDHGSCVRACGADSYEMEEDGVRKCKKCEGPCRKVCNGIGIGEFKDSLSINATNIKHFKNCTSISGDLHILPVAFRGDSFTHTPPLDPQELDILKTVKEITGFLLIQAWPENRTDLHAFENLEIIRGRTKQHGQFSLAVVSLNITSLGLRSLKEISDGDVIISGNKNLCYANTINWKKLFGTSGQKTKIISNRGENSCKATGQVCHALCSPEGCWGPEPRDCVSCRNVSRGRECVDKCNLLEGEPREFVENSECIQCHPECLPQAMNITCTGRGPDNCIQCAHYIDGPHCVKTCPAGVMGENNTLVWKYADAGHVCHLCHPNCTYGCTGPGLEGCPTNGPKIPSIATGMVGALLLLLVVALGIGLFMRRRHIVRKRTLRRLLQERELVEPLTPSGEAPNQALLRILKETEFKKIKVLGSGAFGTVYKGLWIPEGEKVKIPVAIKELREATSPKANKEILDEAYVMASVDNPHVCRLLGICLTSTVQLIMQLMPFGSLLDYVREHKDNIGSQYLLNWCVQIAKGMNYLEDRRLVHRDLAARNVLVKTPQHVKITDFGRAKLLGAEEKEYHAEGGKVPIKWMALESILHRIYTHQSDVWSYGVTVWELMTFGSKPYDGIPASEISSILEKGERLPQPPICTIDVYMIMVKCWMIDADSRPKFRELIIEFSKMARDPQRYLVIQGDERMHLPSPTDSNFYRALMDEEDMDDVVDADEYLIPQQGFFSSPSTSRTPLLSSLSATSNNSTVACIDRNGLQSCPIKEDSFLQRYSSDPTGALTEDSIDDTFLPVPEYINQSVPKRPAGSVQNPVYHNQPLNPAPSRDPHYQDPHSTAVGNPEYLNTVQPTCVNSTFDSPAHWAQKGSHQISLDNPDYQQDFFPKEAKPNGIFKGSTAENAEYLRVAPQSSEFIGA
T5 sequence (P00533 with tags, fused parts or gaps DEL746-750/C797S limits assumed): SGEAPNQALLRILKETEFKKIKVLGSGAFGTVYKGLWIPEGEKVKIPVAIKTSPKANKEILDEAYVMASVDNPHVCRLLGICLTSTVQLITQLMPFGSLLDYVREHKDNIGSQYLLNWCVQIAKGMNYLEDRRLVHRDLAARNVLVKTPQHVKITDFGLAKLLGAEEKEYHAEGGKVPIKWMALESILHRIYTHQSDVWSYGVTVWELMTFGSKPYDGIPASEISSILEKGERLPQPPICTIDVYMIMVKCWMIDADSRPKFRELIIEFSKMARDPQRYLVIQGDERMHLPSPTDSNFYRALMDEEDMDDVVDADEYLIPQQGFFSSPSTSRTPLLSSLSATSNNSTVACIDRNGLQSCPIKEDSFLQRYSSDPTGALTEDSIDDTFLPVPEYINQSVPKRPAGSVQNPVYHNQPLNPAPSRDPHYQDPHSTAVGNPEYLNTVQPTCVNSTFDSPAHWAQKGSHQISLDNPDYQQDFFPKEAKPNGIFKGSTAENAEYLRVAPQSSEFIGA
T1 sequence (P00533 with tags, fused parts or gaps DEL746-750/T790M/C797S limits assumed): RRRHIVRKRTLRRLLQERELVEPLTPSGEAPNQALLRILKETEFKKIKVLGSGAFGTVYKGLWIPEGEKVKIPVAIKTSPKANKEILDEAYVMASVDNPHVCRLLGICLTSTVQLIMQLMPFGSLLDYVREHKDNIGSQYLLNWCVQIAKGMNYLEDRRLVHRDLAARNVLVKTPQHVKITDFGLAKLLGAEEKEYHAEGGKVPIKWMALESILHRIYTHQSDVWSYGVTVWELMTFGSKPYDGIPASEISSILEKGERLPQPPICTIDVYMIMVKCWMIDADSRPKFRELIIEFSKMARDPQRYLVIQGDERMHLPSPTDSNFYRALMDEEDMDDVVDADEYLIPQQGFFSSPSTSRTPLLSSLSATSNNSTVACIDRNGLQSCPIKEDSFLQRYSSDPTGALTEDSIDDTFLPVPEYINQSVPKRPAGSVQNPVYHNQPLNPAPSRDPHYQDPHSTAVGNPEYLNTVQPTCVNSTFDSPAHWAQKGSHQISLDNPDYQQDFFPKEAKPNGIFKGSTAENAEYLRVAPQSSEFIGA

| SMILES | IC50 [1] | IC50 (EGFR[T790M/C797S/L858R]) | IC50 (EGFR Exon19Del/T790M) | IC50 (EGFR L858R/T790M) | GI50 [2, 3] | GI50 [2, 4] | GI50 [2, 5] | GI50 [2, 6] | GI50 [2, 7] | GI50 [2, 8] | GI50 [2, 9] | GI50 (PC-9) | IC50 (EGFR (d746-750 C797S)) | IC50 (EGFR L858R) | IC50 (EGFR wild type) | pIC50 (EGFR Exon19Del) | IC50 (EGFR (C797S L858R)) |
| --- | --- | --- | --- | --- | --- | --- | --- | --- | --- | --- | --- | --- | --- | --- | --- | --- | --- |
| CN1CCC2CN(c3ccc4nc5n(c4c3)C34CCC(CN(CCOc6c(cnn6C)-c6cc(cn(C)c6=O)C(=O)N5)C3)C4)CC21 (single isomer, unassigned) [Example A79A] | > 5000 nM | > 5000 nM | > 5000 nM | > 5000 nM | 251 nM | 999 nM | 990 nM | 360 nM | 1910 nM | 1120 nM | 882 nM | 993 nM | 1580 nM | > 5000 nM | > 5000 nM | 5.84 | > 5000 nM |
| CN1CCN(C2CCN(c3ccc4nc5n(c4c3)C34CCC(CN(CCOc6c(cnn6C)-c6cc(cn(C)c6=O)C(=O)N5)C3)C4)C2)CC1 (single isomer, unassigned) [Example A80A2, 15,21-Dimethyl-5-[3-(4-methylpiperazin-1-yl)pyrrolidin-1-yl]-23-oxa-2,9,11,15,20,21,26-heptaazaheptacyclo[24.4.1.1^{1,28}.1^{13,17}.0^{2,10}.0^{3,8}.0^{18,22}]tritriaconta-3,5,7,9,13,17(33),18(22),19-octaene-12,16-dione] | 2190 nM | > 5000 nM | > 5000 nM | > 5000 nM | 57 nM | 170 nM | 100 nM | 125 nM | 126 nM | 315 nM | 136 nM | 381 nM | 530 nM | > 5000 nM | > 5000 nM | 6.31 | > 5000 nM |
| CN1CCC2(CCN(c3ccc4nc5n(c4c3)C34CCC(CN(CCOc6c(cnn6C)-c6cc(cn(C)c6=O)C(=O)N5)C3)C4)CC2)C1 (single isomer, unassigned) [Example A82A] | 629 nM | > 5000 nM | 1410 nM | > 5000 nM | 96 nM | 186 nM | 108 nM | 76 nM | 129 nM | 137 nM | 200 nM | 92 nM | 226 nM | 1210 nM | 341 nM | 6.51 | 2140 nM |
| CN(C)C1CN(c2ccc3nc4n(c3c2)C23CCC(CN(CCOc5c(cnn5C)-c5cc(cn(C)c5=O)C(=O)N4)C2)C3)CC1F (single isomer, unassigned) [Example A84B, 15,21-Dimethyl-5-[4-fluoro-3-(N,N-dimethylamino)pyrrolidinyl]-23-oxa-2,9,11,15,20,21,26-heptaazaheptacyclo[24.4.1.1^{1,28}.1^{13,17}.0^{2,10}.0^{3,8}.0^{18,22}]tritriaconta-3,5,7,9,13,17(33),18(22),19-octaene-12,16-dione] | > 5000 nM | > 5000 nM | > 5000 nM | > 5000 nM | 157 nM | 516 nM | 480 nM | 302 nM | 1040 nM | 997 nM | 545 nM | 768 nM | 400 nM | 1310 nM | > 5000 nM | 6.35 | 1140 nM |
| CN(C)CCN(C)c1ccc2nc3n(c2c1)C12CCC(CN(CCOc4c(cnn4C)-c4cc(cn(C)c4=O)C(=O)N3)C1)C2 (single isomer, unassigned) [Example A85A] | 3660 nM | > 5000 nM | > 5000 nM | > 5000 nM | 95 nM | 119 nM | 188 nM | 167 nM | 303 nM | 364 nM | 159 nM | 387 nM | 308 nM | 1590 nM | > 5000 nM | 6.86 | 1280 nM |
| CN1CCOC2(C1)CN(c1ccc3nc4n(c3c1)C13CCC(CN(CCOc5c(cnn5C)-c5cc(cn(C)c5=O)C(=O)N4)C1)C3)C2 (single isomer, unassigned) [Example A86A] | > 5000 nM | > 5000 nM | > 5000 nM | > 5000 nM | 50 nM | 120 nM | 181 nM | 244 nM | 264 nM | 367 nM | 123 nM | 989 nM | 599 nM | 2120 nM | > 5000 nM | 6.16 | 2820 nM |
